The text below walks through data of patent EP3426634B1, “DISUBTITUTED AZETIDINES, PYRROLIDINES, PIPERIDINES AND AZEPANES AS INHIBITORS OF MONOAMINE OXIDASE B FOR THE TREATMENT OF NEURODEGENERATIVE DISEASES” (University of Ljubljana, priority 2016, dated 2018).

Broadly, the IC50 is the midpoint of a concentration-inhibition curve.

The target in test [1] is T1, hMAO-B (Homo sapiens, UniProt P27338).
T1 construct: purchased Sigma Aldrich M7441; host or cells: baculovirus infected insect cells (BTI-TN-5B1-4)
T1 sequence (P27338 1-520): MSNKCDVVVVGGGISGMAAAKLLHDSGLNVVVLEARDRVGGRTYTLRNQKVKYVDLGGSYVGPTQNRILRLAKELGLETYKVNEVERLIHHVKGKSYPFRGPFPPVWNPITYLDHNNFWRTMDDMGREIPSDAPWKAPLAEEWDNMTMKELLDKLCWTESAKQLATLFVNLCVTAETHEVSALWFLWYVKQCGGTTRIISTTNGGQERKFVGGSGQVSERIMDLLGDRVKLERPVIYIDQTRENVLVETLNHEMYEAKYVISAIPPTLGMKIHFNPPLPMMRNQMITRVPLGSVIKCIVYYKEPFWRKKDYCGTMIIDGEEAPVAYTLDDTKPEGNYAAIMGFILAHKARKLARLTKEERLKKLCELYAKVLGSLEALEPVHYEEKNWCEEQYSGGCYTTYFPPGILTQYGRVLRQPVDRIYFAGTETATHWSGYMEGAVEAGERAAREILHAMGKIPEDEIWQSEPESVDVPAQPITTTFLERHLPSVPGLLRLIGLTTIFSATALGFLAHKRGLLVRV
The experiment in a line: Inhibition assay using human recombinant MAO-B (fluorimetric Amplex Red assay). In kind it is biochemical. The note with it: 1 mM p-tyramine, 15 min pre-incubation at 37 °C, pH 7.4, Amplex Red/horseradish peroxidase, read-out: hMAO-B IC50 [nM] ±SEM.
Method: The inhibitory activity of the compounds was evaluated by their effects on the production of hydrogen peroxide (H2O2) from p-tyramine, a nonspecific substrate for both hMAO isoforms. The production of the H2O2 was detected using Amplex Red reagent in the presence of horseradish peroxidase, where a highly sensitive fluorescent product, resorufin, is produced at stoichiometric amounts. Recombinant human microsomal hMAO enzymes expressed in baculovirus infected insect cells (BTI-TN-5B1-4), horse-radish peroxidase (type II, lyophilized powder), and p-tyramine hydrochloride were purchased from Sigma Aldrich.
The production of resorufin was quantified on the basis of the fluorescence generated (λex= 530 nm, λem = 590 nm) at 37 °C over a period of 20 min, during which time the fluorescence increase linearly. For control experiments, DMSO was used instead of the appropriate dilutions of the compounds in DMSO. To determine the blank value (b), phosphate-buffered solution replaced the enzyme solution. The initial velocities were calculated from the trends obtained, with each measurement carried out in duplicate. The inhibitory potencies are expressed as the residual activities (RA = (vi-b) / (vo-b), where vi is the velocity in the presence of the test compounds, and v0 the control velocity in the presence of DMSO. The IC50 values were obtained by plotting residual enzyme activities against applied inhibitor concentration, with the experimental data fitted to a Hill four parameter equation (Equation (1)) using in-house python script and Gnuplot software. Y = Min + (Max−Min)/(1+10^(∧)((LogIC50−X)×Hillcoefficient)) [formula] where X represent logarithm of inhibitor concentration, and Y the residual activity.
The capacity of the test compounds to react directly with Amplex Red was determined by adding these compounds to a solution containing all of the components except the MAO isoenzyme.

The target of test [2] is T1, hMAO-B. The experiment in a line: Reversibility assay (100-fold dilution). In kind it is biochemical. Conditions: hMAO-B at 100-fold final concentration incubated 15 min at 37 °C with inhibitor at 10-fold the IC50, then diluted 100-fold; monitored 30 min.
Method: The final concentrations of all of the reagents and MAO-B were the same as in the assay described above. The reaction was monitored for 30 min. Control experiments were carried out in the same manner, where the inhibitor solution was replaced by DMSO.

For the compound `C#CCN1CCC(/C=C/c2ccccn2)CC1`, the IC50 on hMAO-B [1] amounted to 730 ± 85.6 nM.

Consider `C#CCN1CCCC(Cc2ccc(F)cc2)CC1` (stereo not drawn) [drawing 183], for which the IC50 at hMAO-B [1] was found to be 59.2 ± 6 nM.

Turning to `C#CCN1CCC(/C=C/c2ccc(F)cc2)C1` (stereo not drawn), on hMAO-B [1], the 50% inhibitory concentration (IC50) was 17400 ± 2040 nM.

With `C#CCCN1CCC(/C=C/c2ccc(F)cc2)CC1` [drawing 173], the IC50 at hMAO-B [1] turned out to be 475 ± 28.6 nM.

Take `C#CCCN1CCC(/C=C/c2ccc(F)cc2)CC1` [drawing 194]: the “Activity of the enzyme after 100-fold dilution (in percentage ±SD)” value at hMAO-B [2] is given as 94.91 ±2.52 percentage.

`C#CCCN1CCC(CCc2ccc(F)cc2)CC1`: the IC50 at hMAO-B [1] was 1700 ± 292 nM.

Take `C#CCN1CCCC(CCc2ccc(F)cc2)CC1` (stereo not drawn): the IC50 on hMAO-B [1] is 250 ± 42.4 nM.

On to `C#CCN1CCCC(Cc2ccc(F)cc2)CC1` (stereo not drawn) [drawing 196], for which the “Activity of the enzyme after 100-fold dilution (in percentage ±SD)” value at hMAO-B [2] turned out to be 5.55 ±0.25 percentage.

In the case of `C#CCCCN1CCC(/C=C/c2ccc(F)cc2)CC1` [drawing 195], the “Activity of the enzyme after 100-fold dilution (in percentage ±SD)” value at hMAO-B [2] is recorded as 74.01 ±2.76 percentage.

Take `C#CCN1CCC(=Cc2ccc(F)cc2)CC1`: at hMAO-B [1], the IC50 was 48800 ± 3240 nM.

For the compound `C#CCCCN1CCC(/C=C/c2ccc(F)cc2)CC1` [drawing 177], the IC50 on hMAO-B [1] is 163 ± 17 nM.

On to `C#CCN1CCC(CCc2ccc(Br)cc2)CC1`, for which the IC50 on hMAO-B [1] is 1440 ± 140 nM.
